Where “and” joins values, the source holds several entries; their conditions need not be identical. Identical values can stand only once.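 Dose response: 5 concentrations. Exposure: 48 h. Format: 96-well plates. Endpoint: linear interpolation; highest concentration if not reached. GI50 marks 50% less growth. At the TGI there is no net growth.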
How the values were obtained:
Assay in all cases: inhibition of tumour cell growth, NCI panel, 48 h
RPMI-8226 leukemia = test system: RPMI-8226 leukemia
M14 melanoma = test system: M14 melanoma
IGROV1 ovarian = test system: IGROV1 ovarian
CCRF-CEM leukemia = test system: CCRF-CEM leukemia
SNB-75 CNS = test system: SNB-75 CNS
786-0 renal = test system: 786-0 renal
SK-OV-3 ovarian = test system: SK-OV-3 ovarian
OVCAR-5 ovarian = test system: OVCAR-5 ovarian
HCT-15 colon = test system: HCT-15 colon
SR leukemia = test system: SR leukemia

| Structure (SMILES) | GI50 (RPMI-8226 leukemia) | TGI (RPMI-8226 leukemia) | GI50 (M14 melanoma) | TGI (M14 melanoma) | GI50 (IGROV1 ovarian) | TGI (IGROV1 ovarian) | GI50 (CCRF-CEM leukemia) | GI50 (SNB-75 CNS) | TGI (SNB-75 CNS) | GI50 (786-0 renal) | TGI (786-0 renal) | GI50 (SK-OV-3 ovarian) | TGI (SK-OV-3 ovarian) | GI50 (OVCAR-5 ovarian) | TGI (OVCAR-5 ovarian) | GI50 (HCT-15 colon) | TGI (HCT-15 colon) | GI50 (SR leukemia) | TGI (SR leukemia) | TGI (CCRF-CEM leukemia) |
| --- | --- | --- | --- | --- | --- | --- | --- | --- | --- | --- | --- | --- | --- | --- | --- | --- | --- | --- | --- | --- |
| CC1CC(C)CC(C)C(O)/C(C#N)=C/C=C/CC(C2CCCC2C(=O)O)OC(=O)CC(O)C(C)C1 (stereo not drawn) | 0.00486 µM | 0.0315 µM and < 0.145 µM | 0.026 µM | 0.0971 µM and 0.0576 µM | 0.0231 µM | 0.128 µM and 0.0412 µM | 0.0241 µM | 0.0267 µM | 0.0853 µM and 0.11 µM | 0.0213 µM | 0.171 µM and 0.0536 µM | 0.0369 µM | 0.217 µM and 0.0917 µM | 0.023 µM | 0.282 µM and < 0.0365 µM | 0.0229 µM | 0.114 µM and 0.104 µM | 0.0176 µM | 0.0736 µM and 0.0813 µM |  |
| c1ccc(NN(Cc2cnccn2)c2ccccc2)cc1 |  | > 100 µM |  | > 100 µM |  | > 100 µM |  |  | > 100 µM |  | > 100 µM |  | > 100 µM |  | > 100 µM |  | > 100 µM |  | > 100 µM | 51.2 µM |
| O=C(NCC1CC1)c1ccc(-c2cccc(C(=O)NC3CC3)c2)cc1 | > 25 µM | > 25 µM | > 25 µM | > 25 µM | > 25 µM | > 25 µM | > 25 µM | > 25 µM | > 25 µM | > 25 µM | > 25 µM | > 25 µM | > 25 µM | > 25 µM | > 25 µM | > 25 µM | > 25 µM | > 23.3 µM | > 25 µM | > 25 µM |
| O=[N+]([O-])c1ccccc1N=Nc1c(O)[nH]c2cccc(C(F)(F)F)c12 |  | > 100 µM |  | > 100 µM |  | 57.7 µM |  |  | > 100 µM |  | 60 µM |  | > 100 µM |  | > 100 µM |  | > 100 µM |  | 15.7 µM | > 100 µM |
| CNC(=S)Nc1ccc(OC)c2ccccc12 |  | > 10 µM |  | > 10 µM |  | > 10 µM |  |  | > 10 µM |  | > 10 µM |  | > 10 µM |  | > 10 µM |  | > 10 µM |  | > 10 µM | > 10 µM |
| CC1=C2C(=C[C@@](C)(CO)[C@@H]2OC(=O)N(C)CCN(C)C(=O)OC(C)(C)C)C(=O)[C@](C)(O)C12CC2 | 5.83 µM | 43.8 µM | 6.36 µM | 20.8 µM | 1.97 µM | 18.8 µM | 18.8 µM | 5.29 µM | 11.8 µM | 11.6 µM | 37.8 µM | 6.93 µM | 23 µM | 2.67 µM | > 50 µM | 3.98 µM | > 50 µM | 2.39 µM | > 50 µM | > 50 µM |
| CCOC(=O)Oc1c(OC)cc(C(=O)c2ccc(OC)c(O)c2OC)cc1OC | 0.456 µM | > 100 µM | 0.319 µM | > 100 µM | 3.86 µM | > 100 µM | 0.41 µM | 0.534 µM | > 100 µM | 0.475 µM | > 100 µM | 2.88 µM | > 100 µM | 5.96 µM | > 100 µM | 0.42 µM | > 100 µM | 0.381 µM | > 100 µM | > 100 µM |
| CCc1c2c(nc3ccc(OCc4ccc(B(O)O)cc4)cc13)-c1cc3c(c(=O)n1C2)COC(=O)[C@]3(O)CC | 0.184 µM | > 100 µM | < 0.0156 µM | 1.66 µM | 0.161 µM | > 33.7 µM | < 0.01 µM | < 0.0167 µM | 0.321 µM | < 0.0174 µM | 1.8 µM | < 0.01 µM | 0.347 µM | 0.253 µM |  | 0.353 µM | > 43 µM | < 0.01 µM | > 100 µM | > 100 µM |
| c1cc[c]([Sn][c]2ccccc2)cc1 | 19.8 µM | 49.2 µM | 24.4 µM | 56.7 µM | 38.9 µM | > 100 µM | 21.9 µM | 30.2 µM | > 100 µM | 17.4 µM | 31.6 µM | 26.4 µM | 90.9 µM | 15 µM | > 57.5 µM | 20.5 µM | 41 µM | 18.6 µM | 45.3 µM | 62.7 µM |

From PubChem BioAssay (NCI)
